Test results taken from patent publication EP1714676A2, “Use of N-substituted-1,5-dideoxy-1,5-imino-D-glucitol compounds for treating hepatitis virus infections” (G.D. Searle LLC., priority 1999, dated 1999).

Tests used:
Hepatitis B Virus = test: HBV secretion by chronically HBV secreting HepG2.2.15 cells (preS1 immunoprecipitation of secreted virions, PCR of viral DNA); format: cell-based; conditions: 3 days, control = 100%
Protocol: The anti-hepatitis B virus activity and effect on cell viability of a number of different N-substituted-1,5-dideoxy-1,5-imino-D-glucitol compounds were assessed using an in vitro assay employing chronically hepatitis B virus secreting HepG2.2.15 cells. The method employed was essentially that described in Block et al. (1994) Proc. Natl. Acad. Sci. USA 91:2235-2239.

HepG2.2.15 cells = format: cell-based
[1] = system: HepG 2.2.15 (2.2.15) cells; test: IC-90 values taken as basis for the combostat serial dilutions; format: cell-based; conditions: Hepatitis B virus, HepG2.2.15; T. Block and G. Jacob, unpublished observation
Protocol: The anti-hepatitis B virus effect of […] (3TC) alone and in combination with N-nonyl-DNJ was determined according to Korba ((1996) Antiviral Research 29(1):49-51), using the "combostat" strategy (Comstat Program, Combostat Corp., Duluth, MN). The combostat method involves serially diluting the IC-90 of each compound. The IC-90 of N-nonyl-DNJ has been determined to be between 4 and 10 µg/ml (T. Block and G. Jacob, unpublished observation). The accepted IC-90 for 3TC in HepG 2.2.15 (2.2.15) cells is 300nM to 500nM (Doong et al. (1991) Proc. Natl. Acad. Sci. USA 88:8495-8499).

[2] = system: woodchuck hepatitis virus (WHV); test: Woodchuck model: total HBV DNA by quantitative PCR; format: in vivo; conditions: 0, 12.5, 25, 50, 100 mg/kg/day BID oral, 4 weeks
Protocol: (§1) Therefore, five groups of four animals each (all groups had both sexes, all but the control had two of each sex) were assigned to 0, 12.5, 25, 50, and 100 mg/kg/day with BID oral dosing. These were lab-reared wild animals. All animals were infected with woodchuck hepatitis virus (WHV) as neonates, and had been tested positive on serological tests for WHV surface antigen. Blood samples were drawn one week prior to dosing (-1 week), immediately before dosing (0 weeks), weekly during dosing (1, 2, 3, and 4 weeks), and after the end of dosing (5, 6, 8, and 10 weeks).
(§2) There are two measures of drug efficacy: reduction in total HBV DNA (measured by quantitative PCR), and reduction in HBV DNA from capsids with intact surface glycoproteins, which is the active form of the virus (measured by an ELISA-like immune precipitation assay followed by quantitative PCR).
The total HBV DNA levels were essentially constant over time within each animal (data not shown). There was a faint hint of a dose-response relationship with decreasing levels of virus with increasing levels of drug, except that three animals at the highest dose had very high virus levels. It is not possible to conclude that there is any relationship between dose of N-nonyl-DNJ and total HBV DNA. […]

[3] = system: woodchuck hepatitis virus (WHV); test: Woodchuck model: immune precipitated HBV DNA (IPDNA), immune precipitation followed by quantitative PCR; format: in vivo
Protocol: as §1, §2
Substantial variation existed in the IPDNA assay, both between assay runs and within assay runs (data not shown). Even so, it was possible to observe and model a slope over weeks 0-4 which is generally increasing for low dose animals and decreasing for high dose animals.
Before models are fitted to the data, a log transform was applied because: 1) the variation in IPDNA increases with increasing IPDNA values; the log transformation gives values with a nearly constant variation, and 2) it is expected that drug effects will appear as a constant multiplier of the IPDNA level. Because there are zero values of IPDNA, a small value (about 1/2 of the smallest non-zero value) was added to all values before the log transform.
Two approaches were used to model the changes in slope to week with dose of N-nonyl-DNJ: a linear modeling approach and a nonlinear model. Both approaches assume that the (linear) rate of change of the Log(IPDNA) measure over the dosing period is the "right" measure to reflect the effect of the drug on the virus. Both approaches are fit in stages, and the first stage is common to both approaches. First, a simple straight line regression model is fit using weeks 0-4 to predict log(IPDNA + 10) separately for each animal by run combination. In the second stage, the response variable is the slope fitted in the first stage.
For the linear approach, a model is fit with slope to week as the response where run is considered a block, dose has a significant effect (almost all of this effect is due to a slope to dose), and the relevant error for testing the effect of dose is the variation among animals treated alike (after the adjustment for the runs as blocks). This is similar to using the calibration data within each run to first adjust each run's data to a common virus DNA concentration; the difference is that here the data from the woodchucks are used for the run adjustment rather than only the calibration data.
For the nonlinear approach, a four parameter logistic model is fit with the slope to week as the response and the dose as the predictor. Again, run is considered a block, but because no run has all weeks, it is not possible to fully reflect the blocking in the nonlinear approach. […] The average maximum slope observed was 2.71 additional Log(IPDNA µg/mL)/week, or an increase of about […], the average minimum slope observed with N-nonyl-DNJ is 0.31 fewer Log (IPDNA µg/mL)/week), or about a decrease of about […]. The slopes, the fitted model, the parameter estimates from the model, and the approximate standard errors for these parameters are all shown in Figure 3. […] Whether in woodchucks or humans, the effective dose of both the N-alkyl-DNJ and nucleoside or nucleotide antiviral agent administered in combination therewith can be administered in two equal daily subdoses (i.e., B.I.D.).

[4] = concentration [200] (unit not given)
[5] = concentration [1000] (unit not given)

Row | SMILES | Relative amount of HBV secreted, as a % of control (Hepatitis B Virus; [4]) | Relative amount of HBV secreted, as a % of control (Hepatitis B Virus; [5]) | appearance of cells by gross microscopic examination (HepG2.2.15 cells) | IC90 [1] [µg/mL] | effect on total HBV DNA measurements [2] | EC50 ([3]; four parameter logistic model, slope of Log(IPDNA + 10) to week vs dose) [mg/kg/BID dose] | average maximum slope observed ([3]; weeks 0-4 of dosing) | average minimum slope observed ([3]; weeks 0-4 of dosing) | decrease of IPDNA at average minimum slope ([3]; weeks 0-4 of dosing) | increase of IPDNA at average maximum slope ([3]; weeks 0-4 of dosing) | approximate effective monotherapy dose ([3]; woodchucks, oral)
1 | CCC(CC)CN1C[C@H](O)[C@@H](O)[C@H](O)[C@H]1CO [Compound 3, N-(2-ethylbutyl)-1,5-dideoxy-1,5-imino-D-glucitol] | 5.0 +/-30 (n = 3) % | 5.0 +/-20(n = 3) % | unremarkable (healthy) | – | – | – | – | – | – | – | –
2 | CCCCN1C[C@H](O)[C@@H](O)[C@H](O)[C@H]1CO [NBDNJ, N-(n-butyl-)-1,5-dideoxy-1,5-imino-D-glucitol, reference compound] | 37.0 +/-13(n = 15) % | 3.2 +/-5(n = 15) % | – | – | – | – | – | – | – | – | –
3 | CCCCCCCCCN1C[C@H](O)[C@@H](O)[C@H](O)[C@H]1CO [Compound 1, N-(n-nonyl)-1,5-dideoxy-1,5-imino-D-glucitol] | – | – | – | 4 to 10 | no effect | 7.88 | 2.71 additional Log(IPDNA µg/mL)/week | 0.31 fewer Log (IPDNA µg/mL)/week | about 25 %/week | about 150 %/week | about 16 mg/kg/day
